Measured values published in patent US20220162191A1, “SMALL MOLECULE MODULATORS OF IL-17” (LEO PHARMA A/S, priority 2019, published 2022).

These compounds were tested against T1, human IL-17AA (Homo sapiens, UniProt Q16552) (assay: IL-8 release assay in human epithelial keratinocytes adult (HEKa)). Details: 3 ng/ml human IL-17AA + 10 ng/ml human TNFalpha, 68-72 h, IL-8 by HTRF, read-out: Rel EC50 L-8 release assay.
T1 construct: host or cells: HEK (human embryonic kidney) cells
T1 sequence (Q16552 24-155) 1: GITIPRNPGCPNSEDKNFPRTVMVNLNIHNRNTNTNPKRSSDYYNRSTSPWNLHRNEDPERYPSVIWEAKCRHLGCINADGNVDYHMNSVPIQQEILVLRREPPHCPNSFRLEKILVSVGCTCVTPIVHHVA
T1 sequence (Q16552 24-155) 2: T1 sequence (Q16552 24-155) 1
Type: cell-based
Procedure, shortened: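 IL-8 secretion, quantified by HTRF (665/620 nm) as percent of controls, served as the readout after 68–72 h culture of HEKa cells with compound plus IL-17AA (3 ng/ml final) and TNF-alpha (10 ng/ml final). Four-parameter logistic curves gave relative IC50 and Emax.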

Row | Structure (SMILES) | EC50 [nM]
1 | Cc1n[nH]c(C)c1-c1ccc(NC(=O)[C@@H](NC(=O)C2(F)CC2)[C@@H]2CCCc3ccc(-c4ccc(=O)n(C(C)C)c4)cc32)cc1O [Example 47, N-[(1S)-2-[4-(3,5-dimethyl-1H-pyrazol-4-yl)-3-hydroxy-anilino]-1-[(1R)-7-(1-isopropyl-6-oxo-3-pyridyl)tetralin-1-yl]-2-oxo-ethyl]-1-fluoro-cyclopropanecarboxamide] | < 100
2 | CC(C)n1cc(-c2ccc3c(c2)[C@H]([C@H](NC(=O)c2ccnn2C)C(=O)Nc2ccc(-c4cncn4C)cc2)CCC3)ccc1=O [Example 44, N-[(1S)-1-[(1R)-7-(1-isopropyl-6-oxo-3-pyridyl)tetralin-1-yl]-2-[4-(3-methylimidazol-4-yl)anilino]-2-oxo-ethyl]-2-methyl-pyrazole-3-carboxamide] | 100 to 1000
3 | Cn1cnnc1-c1ccc(NC(=O)C(Cc2cc(-c3ccc(O)c(CN4CCNCC4)c3)ccc2Cl)NC(=O)c2ccnn2C)cc1 (stereo not drawn) [Example 157, N-[1-[[2-chloro-5-[4-hydroxy-3-(piperazin-1-ylmethyl)phenyl]phenyl]methyl]-2-[4-(4-methyl-1,2,4-triazol-3-yl)anilino]-2-oxo-ethyl]-2-methyl-pyrazole-3-carboxamide] | 100 to 1000
4 | CC(C)Cn1cc(-c2ccc(Cl)c(C[C@H](NC(=O)c3ccnn3C)C(=O)Nc3ccc(-c4cncn4C)cc3)c2)nn1 [Example 212, N-[(1S)-1-[[2-chloro-5-(1-isobutyltriazol-4-yl)phenyl]methyl]-2-[4-(3-methylimidazol-4-yl)anilino]-2-oxo-ethyl]-2-methyl-pyrazole-3-carboxamide] | 100 to 1000
5 | Cc1ncn(C)c1-c1ccc(NC(=O)[C@H](Cc2cc(-c3cnn(C(C)(C)C#N)c3)ccc2Cl)NC(=O)c2ccnn2C)cc1 [Example 204, N-[(1S)-1-[[2-chloro-5-[1-(1-cyano-1-methyl-ethyl)pyrazol-4-yl]phenyl]methyl]-2-[4-(3,5-dimethylimidazol-4-yl)anilino]-2-oxo-ethyl]-2-methyl-pyrazole-3-carboxamide] | 100 to 1000
6 | Cc1ncn(C)c1-c1ccc(NC(=O)[C@@H](NC(=O)C2(F)CC2)[C@@H]2CCCc3ccc(-c4ccc5c(c4)CNC5)cc32)cc1 [Example 43, N-[(1S)-2-[4-(3,5-dimethylimidazol-4-yl)anilino]-1-[(1R)-7-isoindolin-5-yltetralin-1-yl]-2-oxo-ethyl]-1-fluoro-cyclopropanecarboxamide] | 100 to 1000
7 | Cn1cncc1-c1ccc(NC(=O)C(Cc2cc(-c3ccnc(OC4CCC4)c3)ccc2Cl)NC(=O)c2ccnn2C)cc1 (stereo not drawn) [Example 158, N-[1-[[2-chloro-5-[2-(cyclobutoxy)-4-pyridyl]phenyl]methyl]-2-[4-(3-methylimidazol-4-yl)anilino]-2-oxo-ethyl]-2-methyl-pyrazole-3-carboxamide] | 100 to 1000
8 | Cn1cncc1-c1ccc(NC(=O)C(Cc2cc(-c3ccnc(N4CCCCC4)c3)ccc2Cl)NC(=O)c2ccnn2C)cc1 (stereo not drawn) [Example 160, N-[1-[[2-chloro-5-[2-(1-piperidyl)-4-pyridyl]phenyl]methyl]-2-[4-(3-methylimidazol-4-yl)anilino]-2-oxo-ethyl]-2-methyl-pyrazole-3-carboxamide] | 100 to 1000
9 | Cc1ncn(C)c1-c1ccc(NC(=O)[C@H](Cc2cc(-c3cccc(C(C)(C)N)c3)ccc2Cl)NC(=O)c2ccnn2C)cc1 [Example 203, N-[(1S)-1-[[5-[3-(1-amino-1-methyl-ethyl)phenyl]-2-chloro-phenyl]methyl]-2-[4-(3,5-dimethylimidazol-4-yl)anilino]-2-oxo-ethyl]-2-methyl-pyrazole-3-carboxamide] | 100 to 1000
10 | CC(C)c1cc(-c2ccc(Cl)c(CC(NC(=O)c3ccnn3C)C(=O)Nc3ccc(-c4nncn4C)cc3)c2)ccc1C#N (stereo not drawn) [Example 202, N-[1-[[2-chloro-5-(4-cyano-3-isopropyl-phenyl)phenyl]methyl]-2-[4-(4-methyl-1,2,4-triazol-3-yl)anilino]-2-oxo-ethyl]-2-methyl-pyrazole-3-carboxamide] | 100 to 1000
11 | Cn1cncc1-c1ccc(NC(=O)[C@H](Cc2cc(-c3ccnc(C(O)C4CC4)c3)ccc2Cl)NC(=O)c2ccnn2C)cc1 (stereo partly drawn) [Example 140, N-[(1S)-1-[[2-chloro-5-[2-[cyclopropyl(hydroxy)methyl]-4-pyridyl]phenyl]methyl]-2-[4-(3-methylimidazol-4-yl)anilino]-2-oxo-ethyl]-2-methyl-pyrazole-3-carboxamide] | 100 to 1000
12 | Cc1n[nH]c(C)c1-c1ccc(NC(=O)[C@@H](NC(=O)C2(F)CC2)[C@@H]2CCc3ccc(-c4cnn(C(C)(C)CN)c4)cc32)cc1 [Example 24, N-[(1S)-1-[(1R)-6-[1-(2-amino-1,1-dimethyl-ethyl)pyrazol-4-yl]indan-1-yl]-2-[4-(3,5-dimethyl-1H-pyrazol-4-yl)anilino]-2-oxo-ethyl]-1-fluoro-cyclopropanecarboxamide] | 100 to 1000
13 | Cc1ncn(C)c1-c1ccc(NC(=O)[C@@H](NC(=O)c2ccnn2C)[C@@H]2CCCc3ccc(-c4ccc5c(c4)CNC5)cc32)cc1 [Example 42, N-[(1S)-2-[4-(3,5-dimethylimidazol-4-yl)anilino]-1-[(1R)-7-isoindolin-5-yltetralin-1-yl]-2-oxo-ethyl]-2-methyl-pyrazole-3-carboxamide] | 100 to 1000
14 | Cn1cncc1-c1ccc(NC(=O)C(Cc2cc(-c3ccnc(N4CC[C@H](CO)C4)c3)ccc2Cl)NC(=O)c2ccnn2C)cc1 (stereo partly drawn) [Example 185, N-[1-[[2-chloro-5-[2-[(3S)-3-(hydroxymethyl)pyrrolidin-1-yl]-4-pyridyl]phenyl]methyl]-2-[4-(3-methylimidazol-4-yl)anilino]-2-oxo-ethyl]-2-methyl-pyrazole-3-carboxamide] | 100 to 1000
15 | Cc1cnn(C)c1-c1ccc(NC(=O)[C@@H](NC(=O)C2(F)CC2)[C@@H]2CCc3ccc(-c4ccnc(N5C[C@@H]6C[C@H]5CO6)c4)cc32)cc1O [Example 369, N-[(1S)-2-[4-(2,4-dimethylpyrazol-3-yl)-3-hydroxy-anilino]-1-[(1R)-6-[2-[(1S,4S)-2-oxa-5-azabicyclo[2.2.1]heptan-5-yl]-4-pyridyl]indan-1-yl]-2-oxo-ethyl]-1-fluoro-cyclopropanecarboxamide] | < 100
16 | CCCC(=O)N[C@@H](Cc1cc(-c2ccc(=O)n(C(C)C)c2)ccc1Cl)C(=O)Nc1ccc(-c2c(C)cnn2C)cc1 [Example 330, N-[(1S)-1-[[2-chloro-5-(1-isopropyl-6-oxo-3-pyridyl)phenyl]methyl]-2-[4-(2,4-dimethylpyrazol-3-yl)anilino]-2-oxo-ethyl]butanamide] | 100 to 1000
17 | Cc1cc(-c2ccc(Cl)c(CC(NC(=O)c3ccnn3C)C(=O)Nc3ccc(-c4nncn4C)cc3)c2)cc(C)c1C#N (stereo not drawn) [Example 199, N-[1-[[2-chloro-5-(4-cyano-3,5-dimethyl-phenyl)phenyl]methyl]-2-[4-(4-methyl-1,2,4-triazol-3-yl)anilino]-2-oxo-ethyl]-2-methyl-pyrazole-3-carboxamide] | 100 to 1000
18 | CCCCn1cc(-c2ccc(Cl)c(C[C@H](NC(=O)c3ccnn3C)C(=O)Nc3ccc(-c4cncn4C)cc3)c2)cn1 [Example 171] | 100 to 1000
19 | Cc1n[nH]c(C)c1-c1ccc(NC(=O)[C@@H](NC(=O)C2(F)CC2)[C@@H]2CCCc3ccc(-c4cnn(C5CCOCC5)c4)cc32)cc1 [Example 396, N-[(1S)-2-[4-(3,5-dimethyl-1H-pyrazol-4-yl)anilino]-2-oxo-1-[(1R)-7-(1-tetrahydropyran-4-ylpyrazol-4-yl)tetralin-1-yl]ethyl]-1-fluoro-cyclopropanecarboxamide] | < 100
20 | Cc1n[nH]c(C)c1-c1ccc(NC(=O)[C@@H](NC(=O)c2ccnn2C)[C@@H]2CCc3ccc(-c4ccnc(C(C)(C)O)c4)cc32)cc1 [Example 16, N-[(1S)-2-[4-(3,5-dimethyl-1H-pyrazol-4-yl)anilino]-1-[(1R)-6-[2-(1-hydroxy-1-methyl-ethyl)-4-pyridyl]indan-1-yl]-2-oxo-ethyl]-2-methyl-pyrazole-3-carboxamide] | < 100
21 | CN(C)[C@H]1CCN(c2cc(-c3ccc(Cl)c(CC(NC(=O)c4ccnn4C)C(=O)Nc4ccc(-c5cncn5C)cc4)c3)ccn2)C1 (stereo partly drawn) [Example 184, N-[1-[[2-chloro-5-[2-[(3S)-3-(dimethylamino)pyrrolidin-1-yl]-4-pyridyl]phenyl]methyl]-2-[4-(3-methylimidazol-4-yl)anilino]-2-oxo-ethyl]-2-methyl-pyrazole-3-carboxamide] | 100 to 1000
22 | Cn1cnnc1-c1ccc(NC(=O)C(Cc2cc(-c3ccnc(CC(C)(C)O)c3)ccc2Cl)NC(=O)c2ccnn2C)cc1 (stereo not drawn) [Example 64, N-[1-[[2-chloro-5-[2-(2-hydroxy-2-methyl-propyl)-4-pyridyl]phenyl]methyl]-2-[4-(4-methyl-1,2,4-triazol-3-yl)anilino]-2-oxo-ethyl]-2-methyl-pyrazole-3-carboxamide] | > 1000
23 | Cc1n[nH]c(C)c1-c1ccc(NC(=O)[C@@H](NC(=O)c2ccnn2C)[C@@H]2CCc3ccc(-c4ccc(CN5CCC5)cc4)cc32)cc1 [Example 21, N-[(1S)-1-[(1R)-6-[4-(azetidin-1-ylmethyl)phenyl]indan-1-yl]-2-[4-(3,5-dimethyl-1H-pyrazole-4-yl)anilino]-2-oxo-ethyl]-2-methyl-pyrazole-3-carboxamide] | < 100
24 | CC(C)n1cc(-c2ccc(Cl)c(C[C@H](NC(=O)C3(F)CC3)C(=O)Nc3ccc(-c4cncn4C)c(O)c3)c2)ccc1=O [Example 133, N-[(1S)-1-[[2-chloro-5-(1-isopropyl-6-oxo-3-pyridyl)phenyl]methyl]-2-[3-hydroxy-4-(3-methylimidazol-4-yl)anilino]-2-oxo-ethyl]-1-fluoro-cyclopropanecarboxamide] | 100 to 1000
